Data on one compound can be found in ChEMBL document CHEMBL1155854, “Conformationally constrained farnesoid X receptor (FXR) agonists: Naphthoic acid-based analogs of GW 4064” (Bioorg Med Chem Lett, 2008).

SMILES strings stand for the structures. Where only a bound is given, the exact number is not on record here.

This experiment has as its target T1, Peroxisome proliferator-activated receptor alpha (Homo sapiens, UniProt Q07869).
T1 sequence (Q07869 whole entry): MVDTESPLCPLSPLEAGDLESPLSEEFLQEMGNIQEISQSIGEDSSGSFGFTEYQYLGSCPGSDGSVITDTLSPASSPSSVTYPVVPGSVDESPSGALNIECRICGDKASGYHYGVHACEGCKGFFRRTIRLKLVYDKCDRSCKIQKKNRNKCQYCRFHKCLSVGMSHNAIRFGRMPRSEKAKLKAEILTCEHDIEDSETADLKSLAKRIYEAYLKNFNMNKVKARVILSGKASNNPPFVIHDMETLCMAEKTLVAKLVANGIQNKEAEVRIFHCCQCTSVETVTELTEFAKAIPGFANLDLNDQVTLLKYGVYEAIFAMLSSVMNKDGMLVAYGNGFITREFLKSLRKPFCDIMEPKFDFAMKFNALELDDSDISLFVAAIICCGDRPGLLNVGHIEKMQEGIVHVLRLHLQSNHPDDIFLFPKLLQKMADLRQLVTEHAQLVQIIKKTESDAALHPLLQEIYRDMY
Briefly: Agonist activity at PPARalpha by SPA assay. In kind it is functional.

Compound `CC(C)c1onc(-c2c(Cl)cccc2Cl)c1COc1ccc(-c2ccc3c(C(=O)O)cccc3c2)cc1` returned an XC50 of more than 10 µM.
